Laboratory results: US7964625B2, “Antibiotics comprising bis(1-aryl-5-tetrazoly1)methane derivatives” (Nederlandse Organisatie Voor …, priority 2005, dated 2011)
In brackets after ≈: the same amount, converted by molar mass. Read-outs that look alike come from different tables or passages of the source. Blank lines part the entries; values can stand above or below the compound they belong to.

Columns and labels:
S. aureus N315 = experiment: MIC test, single strain S. aureus N315; type: cell-based; details: for MIC S. aureus N315: Table II; for MIC: Staphylococcus aureus, N315, Table II
Experimental: (§1) MIC test were performed according to standard methodology: M7-A6-“Methods for Dilution Antimicrobial Susceptibility Tests for Bacteria That Grow Aerobically”; Approved Standard, Sixth Edition Clinical and Laboratory Standards Institute 2005 (CLSI/formerly NCCLS).
(§2) Table II lists the results of 6 different compounds according to Formula (I) on single strains of S. aureus as MIC values expressed in micrograms per milliliter.

S. aureus ATCC 29213 = experiment: MIC test, single strain S. aureus ATCC 29213; type: cell-based; details: for MIC: Staphylococcus aureus
Experimental: as §1, §2
(§3) Table IV lists additional MIC data on single strains of S. aureus as MIC values expressed in micrograms per milliliter. Again BAS 00160352 (NewCo003) is tested, next to its monochloric pendant (NewCo0030) and several of the new compounds of Table I. Some of the experiments were carried out in duplicate. Strains TTC03.0236 and TTC03.0239 are two MRSA strains obtained from the Utrecht University Medical Centre (UMC 01-8756/140 and UMC 03-543155, respectively). Several of the new compounds of Table I appear to be at least as active as NewCo003.

S. aureus MW2 = experiment: MIC test, single strain S. aureus MW2; type: cell-based; details: for MIC S. aureus MW2: Table II; for MIC: Staphylococcus aureus, MW2, Table II
Experimental: as §1, §2

S. aureus strains = experiment: MIC test on multiple strains of S. aureus; type: cell-based; details: for Range MIC (highest): highest value found; for Range MIC (lowest): lowest value found
Experimental: as §1

MRSA 2141 = experiment: Local thigh muscle infection with MRSA 2141 in the mouse, CFU outgrowth; type: in vivo; details: for Reduction of MRSA 2141 CFU in thigh muscle: 24 hours after dosing, vs vehicle
Experimental: The purpose of this study was to investigate the antibiotic efficacy of different doses of compound BAS00160352 (NewCo003) against a local infection with MRSA 2141 in the mouse. Thirty mice were treated intravenously with 0.05, 0.5 or 5.0 mg/kg body weight, respectively. Outgrowth of the infection was used to establish drug efficacy.
For each administered dose the appropriate stock solution was made as a 1 ml aliquot of the test substance in the vehicle (DMSO). The stock solutions were stored at 2-8° C. for 16 hours.
(§4) The test substances were administered as a solution in dimethylsulfoxide (DMSO). The test substance was administered as 20 μl injections per mouse at all dose levels. Vancomycin was used as positive control and injected intravenously as a 10 mg/ml solution in DMSO (20 μl per mouse). Fresh dilutions of the test substance in vehicle were provided, stored at 2-8° C., and used within 18 hours after preparation. Shortly before injection the test substance was warmed to room temperature.
The mice were injected i.m. with 22E05 MRSA 2141 bacteria, strain 2141 in the right thigh muscle, followed one day later by an i.v. injection of the test compound, vancomycin or vehicle in the tail vein. 24 hours later mice were sacrificed, blood was collected by heart puncture and the right thigh muscle was removed. Plasma was prepared from blood samples and stored at −80°±10° C. for possible future analysis. Thigh muscles were weighted and homogenized using an Ultra-Turrax® and dilutions of the homogenate were prepared in saline. Limiting dilutions were plated onto agar plates and two days later the number of MRSA 2141 CFU were determined for each individual mouse as an indication of bactericidal activity of the compound. Additionally, tests were performed to determine if the bacteria used are still oxacillin resistant Staphylococcus aureus. This was done before injection and on pooled thigh muscle isolates per group. […] In vivo antibiotic activity is determined by a CFU reduction of >90% (1 log reduction) in comparison to the negative control (vehicle only). […]

[1] = Observation for adverse side effects after i.v. injection in infected mice; type: in vivo; details: mouse, i.v., 0.05, 0.5 or 5.0 mg/kg in DMSO
Experimental: as §4
The mice were injected i.m. with 22E05 MRSA 2141 bacteria, strain 2141 in the right thigh muscle, followed one day later by an i.v. injection of the test compound, vancomycin or vehicle in the tail vein. 24 hours later mice were sacrificed, blood was collected by heart puncture and the right thigh muscle was removed. Plasma was prepared from blood samples and stored at −80°±10° C. for possible future analysis. Thigh muscles were weighted and homogenized using an Ultra-Turrax® and dilutions of the homogenate were prepared in saline. Limiting dilutions were plated onto agar plates and two days later the number of MRSA 2141 CFU were determined for each individual mouse as an indication of bactericidal activity of the compound. […] In vivo antibiotic activity is determined by a CFU reduction of >90% (1 log reduction) in comparison to the negative control (vehicle only).

S. aureus TTC03.0236 = experiment: MIC test, single strain S. aureus TTC03.0236 (MRSA); type: cell-based; details: Table IV, MRSA strain UMC 01-8756/140, some in duplicate
Experimental: as §1, §3

S. aureus TTC03.0239 = experiment: MIC test, single strain S. aureus TTC03.0239 (MRSA); type: cell-based; details: Table IV, MRSA strain UMC 03-543155, some in duplicate
Experimental: as §1, §3

[2] = ATCC29213, Table II, single strain, read-out: MIC S. aureus ATCC 29213
[3] = Staphylococcus aureus, 60 tested S. aureus strains, read-out: MIC 50
[4] = Staphylococcus aureus, 60 tested S. aureus strains, read-out: MIC 90

Structure (SMILES): Clc1ccc(-n2nnnc2C(Cl)(Cl)c2nnnn2-c2ccc(Cl)cc2)cc1 [NewCo001, Bis-(1-p-chlorobenzen-5-tetrazolyl)-dichloromethane]
MIC S. aureus N315 (S. aureus N315): 2 micrograms per milliliter
MIC S. aureus ATCC 29213 (S. aureus ATCC 29213; Table II, single strain): 16 micrograms per milliliter
MIC S. aureus MW2 (S. aureus MW2): 32 micrograms per milliliter
MIC50 (S. aureus strains; 60 tested S. aureus strains): 4 microgram/milliliter
MIC90 (S. aureus strains; 60 tested S. aureus strains): 16 microgram/milliliter
Range MIC (highest) (S. aureus strains; 60 tested S. aureus strains): >32 microgram/milliliter
Range MIC (lowest) (S. aureus strains; 60 tested S. aureus strains): 1 microgram/milliliter

MIC (S. aureus N315): 4 µg/mL (≈ 9.97 µM)
MIC (S. aureus ATCC 29213; [2]): > 32 µg/mL
MIC (S. aureus MW2): > 32 µg/mL
Range MIC (highest) (S. aureus strains; 60 tested S. aureus strains): >32 microgram/milliliter
Range MIC (lowest) (S. aureus strains; 60 tested S. aureus strains): 0.5 microgram/milliliter
MIC50 (S. aureus strains; [3]): 32 µg/mL (≈ 79.7 µM)
MIC90 (S. aureus strains; [4]): > 32 µg/mL
Structure (SMILES): Cc1ccc(-n2nnnc2C(Cl)(Cl)c2nnnn2-c2ccc(C)cc2)cc1 [NewCo002, Bis-(1-p-tolyl-5-tetrazolyl)-dichloromethane]

Structure (SMILES): Cc1ccccc1-n1nnnc1C(Cl)(Cl)c1nnnn1-c1ccccc1C [NewCo003, Bis-(1-o-tolyl-5-tetrazolyl)-dichloromethane]
MIC (S. aureus N315): 0.125 µg/mL (≈ 0.312 µM)
MIC (S. aureus ATCC 29213; [2]): 0.06 µg/mL (≈ 0.15 µM)
MIC (S. aureus ATCC 29213; ATCC29213, Table IV, some in duplicate, read-out: MIC S. aureus ATCC 29213): 0.19 µg/mL (≈ 0.474 µM)
MIC S. aureus ATCC 29213 (S. aureus ATCC 29213; Table IV, some in duplicate): 0.1 micrograms per milliliter
MIC (S. aureus MW2): 0.06 µg/mL (≈ 0.15 µM)
Trend of dose-dependent efficacy (MRSA 2141; i.v., 0.05 to 5.0 mg/kg): no significant trend of dose-dependent efficacy was observed
Reduction of MRSA 2141 CFU in thigh muscle (MRSA 2141; single i.v. dose 0.05, 0.5 or 5.0 mg/kg one day after infection): Approximately 2 Log reduction
Range MIC (highest) (S. aureus strains; 60 tested S. aureus strains): 0.5 microgram/milliliter
Range MIC (lowest) (S. aureus strains; 60 tested S. aureus strains): 0.03 microgram/milliliter
MIC50 (S. aureus strains; [3]): 0.06 µg/mL (≈ 0.15 µM)
MIC90 (S. aureus strains; [4]): 0.12 µg/mL (≈ 0.299 µM)
Signs of adverse side effects during observation after injection [1]: no signs of adverse side effects were observed

Structure (SMILES): ClC(Cl)(c1nnnn1-c1ccccc1)c1nnnn1-c1ccccc1 [NewCo004, Bis-(1-benzene-5-tetrazolyl)-dichloromethane]
MIC S. aureus N315 (S. aureus N315): 0.25 micrograms per milliliter
MIC S. aureus ATCC 29213 (S. aureus ATCC 29213; Table II, single strain): 1 micrograms per milliliter
MIC S. aureus MW2 (S. aureus MW2): 1 micrograms per milliliter
MIC50 (S. aureus strains; 60 tested S. aureus strains): 1 microgram/milliliter
MIC90 (S. aureus strains; 60 tested S. aureus strains): 2 microgram/milliliter
Range MIC (highest) (S. aureus strains; 60 tested S. aureus strains): 4 microgram/milliliter
Range MIC (lowest) (S. aureus strains; 60 tested S. aureus strains): 0.25 microgram/milliliter

MIC (S. aureus ATCC 29213; [2]): 4 µg/mL (≈ 10.9 µM)
Structure (SMILES): Cc1ccc(-n2nnnc2C(Cl)c2nnnn2-c2ccc(C)cc2)cc1 [NewCo005, Bis-(1-p-tolyl-5-tetrazolyl)-chloromethane]

Structure (SMILES): COc1ccccc1-n1nnnc1C(Cl)(Cl)c1nnnn1-c1ccccc1OC [NewCo006, Bis-(1-o-methoxybenzene-5-tetrazolyl)-dichloromethane]
MIC S. aureus ATCC 29213 (S. aureus ATCC 29213; Table II, single strain): 4 micrograms per milliliter

Structure (SMILES): COc1ccccc1-n1nnnc1C(Cl)(Cl)c1nnnn1-c1ccccc1OC [NewCo007, Bis-(1-o-methoxybenzene-5-tetrazolyl)-dichloromethane]
MIC S. aureus TTC03.0236 (S. aureus TTC03.0236): 1.56 micrograms per milliliter
MIC S. aureus ATCC 29213 (S. aureus ATCC 29213; Table IV, some in duplicate): 1.56 micrograms per milliliter
MIC S. aureus TTC03.0239 (S. aureus TTC03.0239): 1.56 micrograms per milliliter

Structure (SMILES): Fc1ccccc1-n1nnnc1C(Cl)(Cl)c1nnnn1-c1ccccc1F [NewCo0018, Bis-(1-o-fluorobenzene-5-tetrazolyl)-dichloromethane]
MIC S. aureus TTC03.0236 (S. aureus TTC03.0236): 0.78 micrograms per milliliter
MIC S. aureus ATCC 29213 (S. aureus ATCC 29213; Table IV, some in duplicate): 1.56 micrograms per milliliter

Structure (SMILES): COc1ccc(-n2nnnc2C(Cl)(Cl)c2nnnn2-c2ccc(OC)c(Cl)c2)cc1Cl [NewCo0021, Bis-(1-m-chloro-p-methoxybenzene-5-tetrazolyl)-dichloromethane]
MIC S. aureus TTC03.0236 (S. aureus TTC03.0236): 0.78 micrograms per milliliter
MIC S. aureus ATCC 29213 (S. aureus ATCC 29213; Table IV, some in duplicate): 1.56 micrograms per milliliter
MIC S. aureus TTC03.0239 (S. aureus TTC03.0239): 1.56 micrograms per milliliter

Structure (SMILES): COc1ccc(Cl)cc1-n1nnnc1C(Cl)(Cl)c1nnnn1-c1cc(Cl)ccc1OC [NewCo0022]
MIC S. aureus TTC03.0236 (S. aureus TTC03.0236): 0.1 micrograms per milliliter
MIC S. aureus ATCC 29213 (S. aureus ATCC 29213; Table IV, some in duplicate): ≦0.05 micrograms per milliliter
MIC S. aureus TTC03.0239 (S. aureus TTC03.0239): 0.19 micrograms per milliliter

Structure (SMILES): Clc1cccc(-n2nnnc2C(Cl)(Cl)c2nnnn2-c2cccc(Cl)c2Cl)c1Cl [NewCo0023, Bis-(1-o,m-dichlorobenzene-5-tetrazolyl)-dichloromethane]
MIC S. aureus TTC03.0236 (S. aureus TTC03.0236): 0.19 micrograms per milliliter
MIC S. aureus ATCC 29213 (S. aureus ATCC 29213; Table IV, some in duplicate): 0.19 micrograms per milliliter
MIC S. aureus TTC03.0239 (S. aureus TTC03.0239): 0.39 micrograms per milliliter

Structure (SMILES): CN[C@H](CC(C)C)C(=O)N[C@H]1C(=O)N[C@@H](CC(N)=O)C(=O)N[C@H]2C(=O)N[C@H]3C(=O)N[C@H](C(=O)N[C@H](C(=O)O)c4cc(O)cc(O)c4-c4cc3ccc4O)[C@H](O)c3ccc(c(Cl)c3)Oc3cc2cc(c3O[C@@H]2O[C@H](CO)[C@@H](O)[C@H](O)[C@H]2O[C@H]2C[C@](C)(N)[C@H](O)[C@H](C)O2)Oc2ccc(cc2Cl)[C@H]1O [vancomycin, reference compound]
MIC (S. aureus ATCC 29213; ATCC29213, read-out: MIC S. aureus ATCC 29213, Table IV, some in duplicate): 1.56 µg/mL (≈ 1.08 µM)
MIC S. aureus ATCC 29213 (S. aureus ATCC 29213; Table IV, some in duplicate, listed as vancomycine): 0.78 micrograms per milliliter
Reduction of MRSA 2141 CFU in thigh muscle (MRSA 2141; positive control, single i.v. dose 10 mg/kg): Over 1 Log reduction
Range MIC (highest) (S. aureus strains; 60 tested S. aureus strains): 4 microgram/milliliter
Range MIC (lowest) (S. aureus strains; 60 tested S. aureus strains): 0.12 microgram/milliliter
MIC50 (S. aureus strains; Staphylococcus aureus): 0.5 µg/mL (≈ 0.345 µM)
MIC90 (S. aureus strains; Staphylococcus aureus): 1 µg/mL (≈ 0.69 µM)
